Measurements: PMC7574619, “Engineering of NADPH Supply Boosts Photosynthesis-Driven Biotransformations” (ACS Catalysis, 2020)

Target: T1, YqjM (Bacillus subtilis, UniProt P54550)
T1 construct: gene namA; purified YqjM flavoenzyme
T1 sequence (P54550 2-338): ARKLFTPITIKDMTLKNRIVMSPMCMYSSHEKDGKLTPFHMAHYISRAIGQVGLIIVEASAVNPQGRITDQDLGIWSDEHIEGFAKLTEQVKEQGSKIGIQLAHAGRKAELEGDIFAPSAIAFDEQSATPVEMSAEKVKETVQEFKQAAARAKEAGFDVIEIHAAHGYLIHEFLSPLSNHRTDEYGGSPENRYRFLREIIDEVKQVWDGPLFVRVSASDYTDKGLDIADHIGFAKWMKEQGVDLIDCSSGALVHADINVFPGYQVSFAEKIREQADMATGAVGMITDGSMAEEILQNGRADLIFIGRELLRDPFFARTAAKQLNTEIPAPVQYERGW
Assay: stopped-flow, flavin reduction at […] nm, anaerobic
Format: biochemical
Conditions: Tris-HCl 50 mM, pH 7.5, 25 °C; 25 μM YqjM; reductive half reaction

Structure (SMILES)	Kd
NC(=O)C1=CN([C@@H]2O[C@H](COP(=O)(O)OP(=O)(O)OC[C@H]3O[C@@H](n4cnc5c(N)ncnc54)[C@H](O)[C@@H]3O)[C@@H](O)[C@H]2O)C=CC1 [NADH]	140 ± 24.5 µM
NC(=O)C1=CN([C@@H]2O[C@H](COP(=O)(O)OP(=O)(O)OC[C@H]3O[C@@H](n4cnc5c(N)ncnc54)[C@H](OP(=O)(O)O)[C@@H]3O)[C@@H](O)[C@H]2O)C=CC1 [NADPH]	39.8 ± 7.1 µM
